Reference: patent EP0687685A1, “PHYSIOLOGICALLY ACTIVE PEPTIDE” (TEIJIN LIMITED, priority 1993, dated 1994)
Positions of bridges follow the written chain, without caps; N, C: chain ends. Residues, ends and D or L forms follow the SMILES beside them. Chains are numbered I, II in the order given. *: point of attachment. Mob = COc1ccc(C*)cc1; Acm = CC(=O)NC*

How the values were obtained:
human type II PLA₂ [1] = biological target: T1, human type II PLA₂ (Homo sapiens, UniProt P14555); experiment: Inhibition of binding between heparin and human II-type PLA₂ (heparin-bound plate, biotinated PLA₂)
T1 construct: made in house; host or cells: Sf9 insect cells, baculovirus (AcNPV), vector pAcTJI1; purified from culture supernatant
T1 sequence (P14555 21-144): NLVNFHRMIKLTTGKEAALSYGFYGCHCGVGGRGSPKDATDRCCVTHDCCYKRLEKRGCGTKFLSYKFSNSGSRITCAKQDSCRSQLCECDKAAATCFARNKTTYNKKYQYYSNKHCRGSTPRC
Description: 500 µg of human type II (non-pancreatic) purified in Reference Example 1 was reacted with 2 ml of a solution of 5 mM sulfosuccinyl 6-(biotinamide hexose) in 0.1M NaHCO₃ at a room temperature for one hour, and the product was purified by a heparin Sepharose column to obtain biotinated human type II PLA₂.
50 µl of a phosphate buffered saline (PBS) containing 50 µg/ml poly-L-lysine was added to each well of a 96-well ELISA plate, and after incubation at room temperature for an hour, each well was twice washed with PBS, 50 µl of PBS solution containing 20 µg/ml heparin was added to each well, and a reaction was further carried out at a room temperature for an hour. Each well was twice washed with PBS, 200 µl of PBS solution containing 30 mg/ml bovine serum albumin (BSA) was added to each well, and after reaction at 37°C for an hour, the plate was stored at 4°C.
To each well of a peparin-bound plate prepared in Reference Example 3, 50 µl of a solution containing a peptide obtained in Examples 1 to 10 was added. After incubating at room temperature for 45 minutes, 50 µg/ml biotinated human II-type PLA₂ obtained in Example 2 was added thereon, and reaction was further carried out at room temperature for an hour. Each well was washed three times with PBS containing 0.05% Tween 20, 50 µl of a 3% BSA/PBS solution containing alkaline phosphatase-conjugated streptoavidin (Taga, ×2000 dilution) was added thereon, and a reaction was carried out at a room temperature for an hour. Each well was washed three times with PBS containing 0.05% Tween 20, 100 µl of a 1 mM p-nitrophenylphosphate/1M ethanolamine aqueous solution (pH 9.8) was added thereon, and a reaction was carried out at room temperature for an hour. Absorption of reaction mixture was measured at 405 nm using a microplate reader (Molecular Device Inc). A result is shown in Fig. 9, and IC₅₀ (µM) was also obtained.

human type II PLA₂ [2] = biological target: T1, human type II PLA₂; experiment: Enzyme inhibition of human type II PLA₂ in the presence of heparin, radiolabeled synthetic phospholipid (method of Dole); assay type: biochemical; conditions: for inhibition at 5 µg/mL / remaining activity at 5 µg/mL: peptide 5 µg/ml; for inhibition at 10 µg/mL / remaining activity at 10 µg/mL: peptide 10 µg/ml; for inhibition at 50 µg/mL / remaining activity at 50 µg/mL: peptide 50 µg/ml; for inhibition at 100 µg/mL / remaining activity at 100 µg/mL: peptide 100 µg/ml
human type II PLA₂ [3] = biological target: T1, human type II PLA₂; experiment: Enzyme inhibition of human type II PLA₂ in the presence of heparin, radioactive phospholipid of E. coli origin; assay type: biochemical; conditions: heparin 10 µg/ml, PLA₂ enzyme 10 ng/ml
[4] = heparin 50 µg/ml, PLA₂ enzyme 200 ng/ml
[5] = heparin 50 µg/ml, PLA₂ enzyme 200 ng/ml, read-out: PLA₂enzyme activity (%)

Row | SMILES | IC50 (human type II PLA₂ [1]) | inhibition at 5 µg/mL (human type II PLA₂ [2]; [4]) | remaining activity at 5 µg/mL (human type II PLA₂ [2]; [5]) | inhibition at 10 µg/mL (human type II PLA₂ [2]; [4]) | remaining activity at 10 µg/mL (human type II PLA₂ [2]; [5]) | inhibition at 50 µg/mL (human type II PLA₂ [2]; [4]) | remaining activity at 50 µg/mL (human type II PLA₂ [2]; [5]) | inhibition at 100 µg/mL (human type II PLA₂ [2]; [4]) | remaining activity at 100 µg/mL (human type II PLA₂ [2]; [5]) | inhibitory activity to binding of human type II PLA₂ to heparin (human type II PLA₂ [1]) | also measured
1 | COc1ccc(CSC[C@H](NC(=O)[C@H](CO)NC(=O)[C@H](Cc2ccccc2)NC(=O)[C@H](CCCCN)NC(=O)[C@H](Cc2ccc(O)cc2)NC(=O)[C@H](CO)NC(=O)[C@H](CC(C)C)NC(=O)[C@H](Cc2ccccc2)NC(=O)[C@H](CCCCN)NC(=O)[C@@H](NC(=O)CNC(=O)[C@H](CS)NC(=O)CNC(=O)[C@H](CCCNC(=N)N)NC(=O)[C@@H](N)CCCCN)[C@@H](C)O)C(=O)O)cc1 [Peptide (3)] (H-KRGCGTKFLSYKFSC(Mob)-OH) | 2700 nM |  |  |  |  |  |  |  |  |  | 
2 | COc1ccc(CSC[C@H](NC(=O)CNC(=O)[C@H](CCCNC(=N)N)NC(=O)[C@@H](N)CCCCN)C(=O)NCC(=O)N[C@H](C(=O)N[C@@H](CCCCN)C(=O)N[C@@H](Cc2ccccc2)C(=O)N[C@@H](CC(C)C)C(=O)N[C@@H](CO)C(=O)N[C@@H](Cc2ccc(O)cc2)C(=O)N[C@@H](CCCCN)C(=O)N[C@@H](Cc2ccccc2)C(=O)N[C@@H](CO)C(=O)N[C@@H](CS)C(=O)O)[C@@H](C)O)cc1 [Peptide (1)] (H-KRGC(Mob)GTKFLSYKFSC-OH) | 1400 nM |  |  |  |  |  |  |  |  |  | 
3 | CC(C)C[C@@H]1NC(=O)[C@H](Cc2ccccc2)NC(=O)[C@H](CCCCN)NC(=O)[C@H]([C@@H](C)O)NC(=O)CNC(=O)[C@@H](NC(=O)CNC(=O)[C@H](CCCNC(=N)N)NC(=O)[C@@H](N)CCCCN)CSSC[C@H](NC(=O)CNC(=O)[C@H](CCCNC(=N)N)NC(=O)[C@@H](N)CCCCN)C(=O)NCC(=O)N[C@@H]([C@@H](C)O)C(=O)N[C@@H](CCCCN)C(=O)N[C@@H](Cc2ccccc2)C(=O)N[C@@H](CC(C)C)C(=O)N[C@@H](CO)C(=O)N[C@@H](Cc2ccc(O)cc2)C(=O)N[C@@H](CCCCN)C(=O)N[C@@H](Cc2ccccc2)C(=O)N[C@@H](CO)C(=O)N[C@H](C(=O)O)CSSC[C@@H](C(=O)O)NC(=O)[C@H](CO)NC(=O)[C@H](Cc2ccccc2)NC(=O)[C@H](CCCCN)NC(=O)[C@H](Cc2ccc(O)cc2)NC(=O)[C@H](CO)NC1=O [Peptide (16)] (I: H-KRGCGTKFLSYKFSC-OH / II: H-KRGCGTKFLSYKFSC-OH; disulfide I:4-II:4, I:15-II:15) |  | 59% | 41% | 72% | 28% | 82% | 18% | 90% | 10% |  | inhibition at 1 µg/mL (human type II PLA₂ [3]; peptide 1 µg/ml): 88%; remaining activity at 1 µg/mL (human type II PLA₂ [3]; peptide 1 µg/ml): 12%; inhibition at 5 µg/mL (human type II PLA₂ [3]; peptide 5 µg/ml): 97%; remaining activity at 5 µg/mL (human type II PLA₂ [3]; peptide 5 µg/ml): 3%; inhibition at 10 µg/mL (human type II PLA₂ [3]; peptide 10 µg/ml): 98%; remaining activity at 10 µg/mL (human type II PLA₂ [3]; peptide 10 µg/ml): 2%
4 | COc1ccc(CSC[C@H](NC(=O)CNC(=O)[C@H](CCCNC(=N)N)NC(=O)[C@@H](N)CCCCN)C(=O)NCC(=O)N[C@H](C(=O)N[C@@H](CCCCN)C(=O)N[C@@H](Cc2ccccc2)C(=O)N[C@@H](CC(C)C)C(=O)N[C@@H](CO)C(=O)N[C@@H](Cc2ccc(O)cc2)C(=O)N[C@@H](CCCCN)C(=O)N[C@@H](Cc2ccccc2)C(=O)N[C@@H](CO)C(=O)N[C@@H](CS)C(=O)O)[C@@H](C)O)cc1 [Peptide (6)] (H-KRGC(Mob)GTKFLSYKFSC-OH; N-terminus and C-terminus assumed) |  |  |  |  |  |  |  |  |  | strong inhibitory activity | 
5 | CC(C)C[C@@H]1NC(=O)[C@H](Cc2ccccc2)NC(=O)[C@H](CCCCN)NC(=O)[C@H]([C@@H](C)O)NC(=O)CNC(=O)[C@@H](NC(=O)CNC(=O)[C@H](CCCNC(=N)N)NC(=O)[C@@H](N)CCCCN)CSSC[C@@H](C(=O)O)NC(=O)[C@H](CO)NC(=O)[C@H](Cc2ccccc2)NC(=O)[C@H](CCCCN)NC(=O)[C@H](Cc2ccc(O)cc2)NC(=O)[C@H](CO)NC1=O [Peptide (20)] (H-KRGCGTKFLSYKFSC-OH; disulfide 4-15 (inferred); N-terminus and C-terminus assumed) |  | 59% | 41% | 72% | 28% | 82% | 18% | 90% | 10% | strong inhibitory activity | inhibitory activity to type II PLA₂ enzyme (human type II PLA₂ [2]; in the presence of heparin): inhibitory activity; inhibition at 1 µg/mL (human type II PLA₂ [2]; peptide 1 µg/ml, heparin 50 µg/ml, PLA₂ enzyme 200 ng/ml): 10%; remaining activity at 1 µg/mL (human type II PLA₂ [2]; peptide 1 µg/ml, heparin 50 µg/ml, PLA₂ enzyme 200 ng/ml, read-out: PLA₂enzyme activity (%)): 90%
6 | CC(=O)NCSC[C@H](NC(=O)CNC(=O)[C@H](CCCNC(=N)N)NC(=O)[C@@H](N)CCCCN)C(=O)NCC(=O)N[C@H](C(=O)N[C@@H](CCCCN)C(=O)N[C@@H](Cc1ccccc1)C(=O)N[C@@H](CC(C)C)C(=O)N[C@@H](CO)C(=O)N[C@@H](Cc1ccc(O)cc1)C(=O)N[C@@H](CCCCN)C(=O)N[C@@H](Cc1ccccc1)C(=O)N[C@@H](CO)C(=O)N[C@@H](CSSC[C@H](NC(=O)[C@H](CO)NC(=O)[C@H](Cc1ccccc1)NC(=O)[C@H](CCCCN)NC(=O)[C@H](Cc1ccc(O)cc1)NC(=O)[C@H](CO)NC(=O)[C@H](CC(C)C)NC(=O)[C@H](Cc1ccccc1)NC(=O)[C@H](CCCCN)NC(=O)[C@@H](NC(=O)CNC(=O)[C@H](CSCNC(C)=O)NC(=O)CNC(=O)[C@H](CCCNC(=N)N)NC(=O)[C@@H](N)CCCCN)[C@@H](C)O)C(=O)O)C(=O)O)[C@@H](C)O [Peptide (11)] (I: H-KRGC(Acm)GTKFLSYKFSC-OH / II: H-KRGC(Acm)GTKFLSYKFSC-OH; disulfide I:15-II:15) |  | 43% | 57% | 63% | 37% | 78% | 22% | 82% | 18% |  | 
